Data reported in PMC4627284, “High-throughput simultaneous screen and counterscreen identifies homoharringtonine as synthetic lethal with von Hippel-Lindau loss in renal cell carcinoma” (Oncotarget, 2015).

Key:
[1] = test system: XP26 tumorgraft line; assay: ccRCC tumorgraft model, line XP26; assay type: in vivo, NOD/SCID mice; conditions: 0.7 mg/kg by gavage twice daily
Description: We selected 6 independently-derived ccRCC tumorgraft lines that were confirmed to have VHL mutation. The mice (3-5 mice per tumorgraft line) were treated with either HHT (0.7 mg/kg), vehicle (as a negative control), or rapamycin (0.5 mg/kg; as a positive control). In total, 65 tumorgraft bearing mice were evaluated for these experiments in time courses lasting ~28 days, with tumor growth measured every 3 or 4 days.
Figure 3 HHT inhibits tumor growth in a ccRCC tumorgraft model A-F, Tumorgraft lines were treated with vehicle control, HHT (0.7 mg/kg), rapamycin (0.5 mg/kg), (or the combination, where indicated) and tumor growth was measured on the indicated days. Day 0 represents the first day of treatment.
Tumorgrafts were generated and propagated as described previously, with tumor samples implanted subcutaneously into the flank of the mouse for drug trials. Briefly, 4- to 8-week-old NOD/SCID mice were anesthetized with isoflurane and implanted subcutaneously with 64 mm^3 tumor fragments (cohorts 2-20). Once tumors reached an average of at least ~250 mm^3, drug treatment was begun. […] Tumor size (volume) was measured twice weekly and was obtained by multiplying tumor length, width, and depth using calipers. To assess toxicity, mouse weight was monitored once weekly.

[2] = test system: advanced ccRCC; design: method as in PMID 9157078; conditions: 14 patients with advanced ccRCC, 1996; cited from earlier work
[3] = test system: VHL-deficient 786-O cells; assay: High-throughput simultaneous screen and counterscreen, 1:1 mix of EV^GFP and VHL^mCh 786-O cells, fluorescence imaging; assay type: cell-based, human; conditions: library at 5 μM, 48 hours, in the presence of 2 nM rapamycin
Source text: To identify small molecule compounds synthetic lethal with VHL, we carried out an unbiased cell-based screen of a chemical library of ~12,800 compounds using 786-O cells, an extensively studied cell line derived from a VHL-deficient primary human ccRCC [26]. 786-O cells were stably transfected with either an empty vector (EV) control or reconstituted with an HA-tagged VHL cDNA. […] To distinguish between the two otherwise isogenic cell lines, we transduced the VHL-deficient 786-O cells with a histone H2B-GFP reporter and the VHL-reconstituted cells with an H2B-mCherry reporter. The histone proteins drive the fluorochrome to nuclei facilitating cell identification and segmentation algorithms (Figure 1A and 1B). […]
Figure 1 Screening strategy to identify compounds that are synthetic lethal with VHL A. Schematic diagram of a ~12,800 chemical library synthetic lethal screen. […] Fluorescence imaging (using the BD Pathway 855 imager) was used to identify compounds preferentially depleting VHL-deficient/GFP-positive cells after cells were segmented. B. Left panel: Representative image of fluorescence signal from Hoescht-labeled 786-O cells. Right panel: overlay of GFP fluorescence signal (green; from 786-O EV^GFP cells) and mCherry fluorescence nuclear signal (red; VHL^mCh cells). […] Toxicity was determined as ≤100 VHL^mCh cells per field. […]

[4] = design: method as in PMID 3598625; conditions: cited from earlier work
[5] = test system: 786-O VHL^mCh (VHL-reconstituted) cells; assay: Western blot for Caspase 9 and Bcl-xL; assay type: cell-based, human; conditions: 24 hours
Description: (§1) Figure 2 Homoharringtonine (HHT) preferentially induces cell death in VHL-deficient 786-O cells A. 786-O cells with VHL mutation (green) or with VHL-reconstituted (red) were treated with different concentrations of HHT (0, 25, 50, or 100 nM) for 0, 6, 12, 24, 36, or 48 hours, and cell death was measured by trypan blue exclusion assay (n = 3 for each concentration and time point; *p < 0.05, **p < 0.001, ***p < 0.0001 between 786-O EV cells and 786-O with VHL reconstituted at the same concentration and time point). B. […] Blots were probed for Bcl-xL and Caspase 9, and α-Tubulin as loading control. Arrow indicates the cleaved Caspase 9 product.

[6] = test system: 786-O EV^GFP (VHL-deficient) cells; assay: Western blot for Caspase 9 and Bcl-xL; assay type: cell-based, human
Description: as §1

COC(=O)C[C@](O)(CCCC(C)(C)O)C(=O)O[C@@H]1C(OC)=C[C@]23CCCN2CCc2cc4c(cc2[C@H]13)OCO4 [HHT, homoharringtonine]
tumor weight smaller than vehicle-treated [1]: 56%
tumor growth inhibition (tumor volume) vs vehicle ([1]; ~28 days): 63.7%
outcome of phase II trial [2]: halted due to toxicity
synthetic lethality with VHL in the screen [3]: synthetic lethal compound effective against VHL-deficient ccRCC cells
blood-brain barrier penetration [4]: penetrates the blood-brain barrier
Bcl-xL expression [5]: upregulated
caspase 9 cleavage ([6]; 50 nM and 100 nM, within 12 hours): observed
Bcl-xL expression ([6]; 24 hours): not upregulated
